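48-hour exposure; five concentrations; linearly interpolated endpoints. TGI denotes the concentration required for complete inhibition of growth.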 Where a SMILES comes first, the peptide text is derived from it. [ ]: non-standard residue; d: D form. The star is where a group is joined. ξ: configuration not given here. ξW = NC(Cc1c[nH]c2ccccc12)C(=O)O; X30 = O=C(O)[C@H]1CCC[C@H]1N*; ξF = NC(Cc1ccccc1)C(=O)O; Boc = CC(C)(C)OC(=O)*; ξK = NCCCCC(N)C(=O)O; ξT = CC(O)C(N)C(=O)O; tBu = CC(C)(C)*
Columns and labels:
Test in all cases: DTP human tumour cell line panel, 48 h
MCF7 breast = test system: MCF7 breast
HT29 colon = test system: HT29 colon
SNB-75 CNS = test system: SNB-75 CNS
RXF 393 renal = test system: RXF 393 renal
UACC-62 melanoma = test system: UACC-62 melanoma
TK-10 renal = test system: TK-10 renal
SW-620 colon = test system: SW-620 colon
KM12 colon = test system: KM12 colon
UACC-257 melanoma = test system: UACC-257 melanoma
SK-OV-3 ovarian = test system: SK-OV-3 ovarian
NCI-H226 lung = test system: NCI-H226 lung
SNB-19 CNS = test system: SNB-19 CNS
LOX IMVI melanoma = test system: LOX IMVI melanoma
HCT-15 colon = test system: HCT-15 colon
COLO 205 colon = test system: COLO 205 colon
NCI-H23 lung = test system: NCI-H23 lung
SK-MEL-28 melanoma = test system: SK-MEL-28 melanoma
OVCAR-3 ovarian = test system: OVCAR-3 ovarian

Row | SMILES | TGI (MCF7 breast) | TGI (HT29 colon) | TGI (SNB-75 CNS) | TGI (RXF 393 renal) | TGI (UACC-62 melanoma) | TGI (TK-10 renal) | TGI (SW-620 colon) | TGI (KM12 colon) | TGI (UACC-257 melanoma) | TGI (SK-OV-3 ovarian) | TGI (NCI-H226 lung) | TGI (SNB-19 CNS) | TGI (LOX IMVI melanoma) | TGI (HCT-15 colon) | TGI (COLO 205 colon) | TGI (NCI-H23 lung) | TGI (SK-MEL-28 melanoma) | TGI (OVCAR-3 ovarian)
1 | CC1=C(c2ccc(C)cc2)NC(=S)C(C)C(c2ccc(C)cc2)=N1 (configuration not stated) | > 100 µM | > 100 µM | > 100 µM | 70.9 µM | > 100 µM | > 100 µM | > 100 µM | > 100 µM | > 100 µM | > 100 µM | > 100 µM | > 100 µM | > 100 µM | > 100 µM | > 100 µM | > 100 µM | > 100 µM | 
2 | CCN(CC)c1nc(=O)c(C(=O)C(C)(C)C)c(C(C)(C)C)o1 | > 100 µM | > 100 µM | > 100 µM | > 100 µM | > 100 µM | > 100 µM | > 100 µM | > 100 µM | > 100 µM | > 100 µM | > 100 µM | > 100 µM | > 100 µM | > 100 µM | > 100 µM | > 100 µM | > 100 µM | 
3 | O=C1CCCCCCCCCCC1CN(Cc1ccccc1)Cc1ccccc1 (configuration not stated) | 68.1 µM |  |  | 70.2 µM | 36.1 µM | > 100 µM | > 100 µM | > 100 µM | > 100 µM | > 100 µM | > 100 µM | > 100 µM | 69.4 µM | > 100 µM | > 100 µM | > 100 µM | > 100 µM | > 100 µM
4 | CC(OC(C)(C)C)C(NC(=O)C(CCCCNC(=O)OC(C)(C)C)NC(=O)C(Cc1c[nH]c2ccccc12)NC(=O)C(N)Cc1ccccc1)C(=O)NC(Cc1ccccc1)C(=O)N[C@@H]1CCC[C@@H]1C(=O)O (some centres not stated) (H-[ξF][ξW][ξK](Boc)[ξT](tBu)[ξF]-X30) | 62.5 µM | 80.3 µM | > 100 µM | > 100 µM | 85.5 µM |  | > 100 µM | 37.2 µM | > 100 µM | > 100 µM | 52.4 µM | 51.2 µM | 60 µM |  | 76.2 µM | > 100 µM | > 100 µM | > 100 µM
5 | CN1CC(S(=O)(=O)c2ccccc2)CC(S(=O)(=O)c2ccccc2)C1c1ccccc1 (configuration not stated) | 30 µM | 29.6 µM |  | 37.3 µM | 29 µM | 28 µM | 34.4 µM | 38.7 µM | 41 µM | > 100 µM | 65.5 µM | 59.6 µM | 29.7 µM | 32.2 µM | 28 µM |  | 36.7 µM | 27.8 µM
6 | O=C(Nc1ccc(N2C(=O)CSC2c2cccs2)cc1)c1ccc(N2C(=O)CSC2c2cccs2)cc1 (configuration not stated) | > 100 µM | > 100 µM | > 100 µM | > 100 µM | > 100 µM | > 100 µM | > 100 µM | > 100 µM | > 100 µM | > 100 µM |  | > 100 µM | > 100 µM | > 100 µM | > 100 µM | 96.4 µM | > 100 µM | > 100 µM
7 | CCN(CC)C(=O)N[C@@H](Cc1ccccc1)C(=O)NC | > 100 µM | > 100 µM | > 100 µM | > 100 µM | > 100 µM |  | > 100 µM | > 100 µM |  | > 100 µM | > 100 µM | > 100 µM | > 100 µM | > 100 µM | > 100 µM | > 100 µM | > 100 µM | > 100 µM
8 | Nc1ccc(-c2nc3ccc(Cc4ccc5nc(-c6ccc(N)cc6)oc5c4)cc3o2)cc1 | > 100 µM | > 100 µM |  | > 100 µM | > 100 µM | > 100 µM | > 100 µM | > 100 µM | > 100 µM | > 100 µM | > 100 µM | > 100 µM | > 100 µM | > 100 µM | > 100 µM | > 100 µM | > 100 µM | 
9 | Nc1ccc(-c2nc3ccccc3s2)cc1F | > 100 µM | > 100 µM | 82 µM | > 100 µM | 53.4 µM |  | > 100 µM | > 100 µM | > 100 µM | > 100 µM |  | 87.9 µM | > 100 µM | > 100 µM | 48.3 µM | > 100 µM | > 100 µM | 77.6 µM
10 | COC1CC(n2ccc(=O)[nH]c2=O)OC1CO (configuration not stated) | > 100 µM | > 100 µM |  | > 100 µM | > 100 µM |  | > 100 µM | > 100 µM | > 100 µM | > 100 µM | > 100 µM | > 100 µM | > 100 µM | > 100 µM | > 100 µM | > 100 µM | > 100 µM | > 100 µM
11 | COC(=O)c1cn(CCCCO)nn1 | > 100 µM | > 100 µM | > 100 µM | > 100 µM | > 100 µM | > 100 µM | > 100 µM | > 100 µM | > 100 µM |  | > 100 µM | > 100 µM | > 100 µM | > 100 µM | > 100 µM | > 100 µM | > 100 µM | 
12 | O=C1c2ccccc2-n2c1nc1cc(Cl)ccc1c2=O | > 100 µM | > 100 µM | > 100 µM | > 100 µM | 32.1 µM | > 100 µM |  | > 100 µM | 29.1 µM | > 100 µM | > 100 µM | > 100 µM | 76.2 µM | > 100 µM | > 100 µM | > 100 µM |  | > 100 µM
13 | Cc1cccc(Nc2nc(NNC(=O)Cc3ccccc3)nc(NNC(=O)c3ccncc3)n2)c1 | > 10 µM | > 10 µM | > 10 µM | > 10 µM | > 10 µM | > 10 µM | > 10 µM | > 10 µM | > 10 µM | > 10 µM | > 10 µM | > 10 µM | > 10 µM | > 10 µM | > 10 µM | > 10 µM | > 10 µM | 
14 | Nc1nc(NCC2(CO)CC(CCc3ccccc3)C2)cc(=O)[nH]1 (configuration not stated) | > 100 µM | > 100 µM | > 100 µM | > 100 µM | > 100 µM |  | > 100 µM | > 100 µM | > 100 µM | 80.6 µM | > 100 µM | > 100 µM | > 100 µM | > 100 µM | > 100 µM | > 100 µM | > 100 µM | > 100 µM
15 | O=C1CSC(c2ccccc2[N+](=O)[O-])N1c1ccc(-n2c(-c3ccccc3)nc3ccccc3c2=O)cc1 (configuration not stated) | > 100 µM | > 100 µM | 34.9 µM |  | > 100 µM | > 100 µM | > 100 µM | > 100 µM | > 100 µM | 28.3 µM | 89.2 µM | > 100 µM | > 100 µM | > 100 µM | > 100 µM | > 100 µM | > 100 µM | > 100 µM
16 | Cc1cccc2c(N)c3cccc(C(=O)NCCN4CCOCC4)c3nc12 | > 32.1 µM | 3.99 µM | 1.32 µM | 2.62 µM | 3.18 µM | 18.6 µM | 26.1 µM | 5 µM | 7.81 µM | 16.9 µM |  | 3.12 µM | 4.28 µM | 6.39 µM | 2.49 µM | 2.17 µM | 6.29 µM | 16.9 µM
17 | O=C1NCC2(CCNCC2)N1 | > 100 µM | > 100 µM | > 100 µM | > 100 µM | > 100 µM | > 100 µM | > 100 µM | > 100 µM | > 100 µM | > 100 µM | > 100 µM | > 100 µM | > 100 µM | > 100 µM | > 100 µM | > 100 µM | > 100 µM | 
18 | Cc1nc2ccc(S(=O)(=O)Nc3ccccc3Cl)cc2c(=O)n1NC(=O)CNc1ccccc1Cl | > 100 µM | > 100 µM | > 100 µM |  | > 100 µM | > 100 µM | > 100 µM | > 100 µM | > 100 µM | > 100 µM | > 100 µM | > 100 µM | > 100 µM | > 100 µM | > 100 µM | > 100 µM | > 100 µM | > 100 µM
19 | CC1C(=O)CC[C@@]2(C)C(=O)CCCC12O (some centres not stated) | > 100 µM | > 100 µM |  | > 100 µM | > 100 µM | > 100 µM | > 100 µM | > 100 µM | > 100 µM | > 100 µM | > 100 µM | > 100 µM | > 100 µM | > 100 µM | > 100 µM | > 100 µM | > 100 µM | > 100 µM
20 | COc1cc2c(cc1O)-c1c(OC)c(O)cc3c1C(C2)N(C)CC3 (configuration not stated) | > 100 µM | > 100 µM | > 100 µM | > 100 µM | > 100 µM | > 100 µM | > 100 µM | > 100 µM | > 100 µM | > 100 µM | > 100 µM | > 100 µM | > 100 µM | > 100 µM | > 100 µM | > 100 µM |  | > 100 µM
21 | O=C1C(Cl)C(c2cccc(Br)c2)N1c1c(O)c(Cl)cc(Br)c1Cl (configuration not stated) | 25.8 µM | 23 µM |  | 24.3 µM | 33.8 µM | 51.4 µM | 41.4 µM | 39.4 µM | 43.9 µM | 55.8 µM | 51.8 µM | 11.5 µM | 28.5 µM | 19.3 µM | 20.8 µM | 37.9 µM |  | 36.1 µM
